The assay concerns the target T1, calstabin2 (FKBP12.6) binding to PKA-phosphorylated cardiac sarcoplasmic reticulum (CSR) (Homo sapiens, UniProt Q92736).
T1 construct: from tissue
Description: Calstabin 2 (FKBP12.6) Assay. The conditions noted are these: 250 nM calstabin2, approximately 20 μg PKA-phosphorylated CSR, room temperature 30 minutes, immunoblot detection of calstabin2 binding. On the procedure: PKA-phosphorylated cardiac sarcoplasmic reticulum (CSR) (approximately 20 μg) is incubated with 250 nM calstabin2 (FKBP12.6) in 100 μl binding buffer (10 mM imidazole, 300 mM sucrose, pH 7.4) with a known concentration of the test compound. Calstabin2 is added as the last reagent in the reaction mixture. The binding is performed at room temperature for 30 minutes. After the binding reaction, the mixture is centrifuged for 10 minutes at 100,000 xg. The resulting pellet is washed 4 times in binding buffer. After each wash, the tubes are centrifuged at 100,000 xg for 10 minutes. After the final wash, the supernatant is aspirated off 20 μl of 2×SDS-PAGE loading buffer is added to each pellet, and the pellet is resuspended. The mixture is heated to 90° C. for 4 minutes, and the proteins are analysed by 15% SDS-PAGE. Calstabin2 binding was detected with an αFKBP (1:2000) primary antibody and an IR-labeled anti-rabbit IgG from LiCor Biosciences as the secondary antibody. The blot was developed with a LiCor Odyssey system.
(In general: Immunoblotting shows a protein as a band on a membrane.)

T1 sequence (Q92736 whole entry): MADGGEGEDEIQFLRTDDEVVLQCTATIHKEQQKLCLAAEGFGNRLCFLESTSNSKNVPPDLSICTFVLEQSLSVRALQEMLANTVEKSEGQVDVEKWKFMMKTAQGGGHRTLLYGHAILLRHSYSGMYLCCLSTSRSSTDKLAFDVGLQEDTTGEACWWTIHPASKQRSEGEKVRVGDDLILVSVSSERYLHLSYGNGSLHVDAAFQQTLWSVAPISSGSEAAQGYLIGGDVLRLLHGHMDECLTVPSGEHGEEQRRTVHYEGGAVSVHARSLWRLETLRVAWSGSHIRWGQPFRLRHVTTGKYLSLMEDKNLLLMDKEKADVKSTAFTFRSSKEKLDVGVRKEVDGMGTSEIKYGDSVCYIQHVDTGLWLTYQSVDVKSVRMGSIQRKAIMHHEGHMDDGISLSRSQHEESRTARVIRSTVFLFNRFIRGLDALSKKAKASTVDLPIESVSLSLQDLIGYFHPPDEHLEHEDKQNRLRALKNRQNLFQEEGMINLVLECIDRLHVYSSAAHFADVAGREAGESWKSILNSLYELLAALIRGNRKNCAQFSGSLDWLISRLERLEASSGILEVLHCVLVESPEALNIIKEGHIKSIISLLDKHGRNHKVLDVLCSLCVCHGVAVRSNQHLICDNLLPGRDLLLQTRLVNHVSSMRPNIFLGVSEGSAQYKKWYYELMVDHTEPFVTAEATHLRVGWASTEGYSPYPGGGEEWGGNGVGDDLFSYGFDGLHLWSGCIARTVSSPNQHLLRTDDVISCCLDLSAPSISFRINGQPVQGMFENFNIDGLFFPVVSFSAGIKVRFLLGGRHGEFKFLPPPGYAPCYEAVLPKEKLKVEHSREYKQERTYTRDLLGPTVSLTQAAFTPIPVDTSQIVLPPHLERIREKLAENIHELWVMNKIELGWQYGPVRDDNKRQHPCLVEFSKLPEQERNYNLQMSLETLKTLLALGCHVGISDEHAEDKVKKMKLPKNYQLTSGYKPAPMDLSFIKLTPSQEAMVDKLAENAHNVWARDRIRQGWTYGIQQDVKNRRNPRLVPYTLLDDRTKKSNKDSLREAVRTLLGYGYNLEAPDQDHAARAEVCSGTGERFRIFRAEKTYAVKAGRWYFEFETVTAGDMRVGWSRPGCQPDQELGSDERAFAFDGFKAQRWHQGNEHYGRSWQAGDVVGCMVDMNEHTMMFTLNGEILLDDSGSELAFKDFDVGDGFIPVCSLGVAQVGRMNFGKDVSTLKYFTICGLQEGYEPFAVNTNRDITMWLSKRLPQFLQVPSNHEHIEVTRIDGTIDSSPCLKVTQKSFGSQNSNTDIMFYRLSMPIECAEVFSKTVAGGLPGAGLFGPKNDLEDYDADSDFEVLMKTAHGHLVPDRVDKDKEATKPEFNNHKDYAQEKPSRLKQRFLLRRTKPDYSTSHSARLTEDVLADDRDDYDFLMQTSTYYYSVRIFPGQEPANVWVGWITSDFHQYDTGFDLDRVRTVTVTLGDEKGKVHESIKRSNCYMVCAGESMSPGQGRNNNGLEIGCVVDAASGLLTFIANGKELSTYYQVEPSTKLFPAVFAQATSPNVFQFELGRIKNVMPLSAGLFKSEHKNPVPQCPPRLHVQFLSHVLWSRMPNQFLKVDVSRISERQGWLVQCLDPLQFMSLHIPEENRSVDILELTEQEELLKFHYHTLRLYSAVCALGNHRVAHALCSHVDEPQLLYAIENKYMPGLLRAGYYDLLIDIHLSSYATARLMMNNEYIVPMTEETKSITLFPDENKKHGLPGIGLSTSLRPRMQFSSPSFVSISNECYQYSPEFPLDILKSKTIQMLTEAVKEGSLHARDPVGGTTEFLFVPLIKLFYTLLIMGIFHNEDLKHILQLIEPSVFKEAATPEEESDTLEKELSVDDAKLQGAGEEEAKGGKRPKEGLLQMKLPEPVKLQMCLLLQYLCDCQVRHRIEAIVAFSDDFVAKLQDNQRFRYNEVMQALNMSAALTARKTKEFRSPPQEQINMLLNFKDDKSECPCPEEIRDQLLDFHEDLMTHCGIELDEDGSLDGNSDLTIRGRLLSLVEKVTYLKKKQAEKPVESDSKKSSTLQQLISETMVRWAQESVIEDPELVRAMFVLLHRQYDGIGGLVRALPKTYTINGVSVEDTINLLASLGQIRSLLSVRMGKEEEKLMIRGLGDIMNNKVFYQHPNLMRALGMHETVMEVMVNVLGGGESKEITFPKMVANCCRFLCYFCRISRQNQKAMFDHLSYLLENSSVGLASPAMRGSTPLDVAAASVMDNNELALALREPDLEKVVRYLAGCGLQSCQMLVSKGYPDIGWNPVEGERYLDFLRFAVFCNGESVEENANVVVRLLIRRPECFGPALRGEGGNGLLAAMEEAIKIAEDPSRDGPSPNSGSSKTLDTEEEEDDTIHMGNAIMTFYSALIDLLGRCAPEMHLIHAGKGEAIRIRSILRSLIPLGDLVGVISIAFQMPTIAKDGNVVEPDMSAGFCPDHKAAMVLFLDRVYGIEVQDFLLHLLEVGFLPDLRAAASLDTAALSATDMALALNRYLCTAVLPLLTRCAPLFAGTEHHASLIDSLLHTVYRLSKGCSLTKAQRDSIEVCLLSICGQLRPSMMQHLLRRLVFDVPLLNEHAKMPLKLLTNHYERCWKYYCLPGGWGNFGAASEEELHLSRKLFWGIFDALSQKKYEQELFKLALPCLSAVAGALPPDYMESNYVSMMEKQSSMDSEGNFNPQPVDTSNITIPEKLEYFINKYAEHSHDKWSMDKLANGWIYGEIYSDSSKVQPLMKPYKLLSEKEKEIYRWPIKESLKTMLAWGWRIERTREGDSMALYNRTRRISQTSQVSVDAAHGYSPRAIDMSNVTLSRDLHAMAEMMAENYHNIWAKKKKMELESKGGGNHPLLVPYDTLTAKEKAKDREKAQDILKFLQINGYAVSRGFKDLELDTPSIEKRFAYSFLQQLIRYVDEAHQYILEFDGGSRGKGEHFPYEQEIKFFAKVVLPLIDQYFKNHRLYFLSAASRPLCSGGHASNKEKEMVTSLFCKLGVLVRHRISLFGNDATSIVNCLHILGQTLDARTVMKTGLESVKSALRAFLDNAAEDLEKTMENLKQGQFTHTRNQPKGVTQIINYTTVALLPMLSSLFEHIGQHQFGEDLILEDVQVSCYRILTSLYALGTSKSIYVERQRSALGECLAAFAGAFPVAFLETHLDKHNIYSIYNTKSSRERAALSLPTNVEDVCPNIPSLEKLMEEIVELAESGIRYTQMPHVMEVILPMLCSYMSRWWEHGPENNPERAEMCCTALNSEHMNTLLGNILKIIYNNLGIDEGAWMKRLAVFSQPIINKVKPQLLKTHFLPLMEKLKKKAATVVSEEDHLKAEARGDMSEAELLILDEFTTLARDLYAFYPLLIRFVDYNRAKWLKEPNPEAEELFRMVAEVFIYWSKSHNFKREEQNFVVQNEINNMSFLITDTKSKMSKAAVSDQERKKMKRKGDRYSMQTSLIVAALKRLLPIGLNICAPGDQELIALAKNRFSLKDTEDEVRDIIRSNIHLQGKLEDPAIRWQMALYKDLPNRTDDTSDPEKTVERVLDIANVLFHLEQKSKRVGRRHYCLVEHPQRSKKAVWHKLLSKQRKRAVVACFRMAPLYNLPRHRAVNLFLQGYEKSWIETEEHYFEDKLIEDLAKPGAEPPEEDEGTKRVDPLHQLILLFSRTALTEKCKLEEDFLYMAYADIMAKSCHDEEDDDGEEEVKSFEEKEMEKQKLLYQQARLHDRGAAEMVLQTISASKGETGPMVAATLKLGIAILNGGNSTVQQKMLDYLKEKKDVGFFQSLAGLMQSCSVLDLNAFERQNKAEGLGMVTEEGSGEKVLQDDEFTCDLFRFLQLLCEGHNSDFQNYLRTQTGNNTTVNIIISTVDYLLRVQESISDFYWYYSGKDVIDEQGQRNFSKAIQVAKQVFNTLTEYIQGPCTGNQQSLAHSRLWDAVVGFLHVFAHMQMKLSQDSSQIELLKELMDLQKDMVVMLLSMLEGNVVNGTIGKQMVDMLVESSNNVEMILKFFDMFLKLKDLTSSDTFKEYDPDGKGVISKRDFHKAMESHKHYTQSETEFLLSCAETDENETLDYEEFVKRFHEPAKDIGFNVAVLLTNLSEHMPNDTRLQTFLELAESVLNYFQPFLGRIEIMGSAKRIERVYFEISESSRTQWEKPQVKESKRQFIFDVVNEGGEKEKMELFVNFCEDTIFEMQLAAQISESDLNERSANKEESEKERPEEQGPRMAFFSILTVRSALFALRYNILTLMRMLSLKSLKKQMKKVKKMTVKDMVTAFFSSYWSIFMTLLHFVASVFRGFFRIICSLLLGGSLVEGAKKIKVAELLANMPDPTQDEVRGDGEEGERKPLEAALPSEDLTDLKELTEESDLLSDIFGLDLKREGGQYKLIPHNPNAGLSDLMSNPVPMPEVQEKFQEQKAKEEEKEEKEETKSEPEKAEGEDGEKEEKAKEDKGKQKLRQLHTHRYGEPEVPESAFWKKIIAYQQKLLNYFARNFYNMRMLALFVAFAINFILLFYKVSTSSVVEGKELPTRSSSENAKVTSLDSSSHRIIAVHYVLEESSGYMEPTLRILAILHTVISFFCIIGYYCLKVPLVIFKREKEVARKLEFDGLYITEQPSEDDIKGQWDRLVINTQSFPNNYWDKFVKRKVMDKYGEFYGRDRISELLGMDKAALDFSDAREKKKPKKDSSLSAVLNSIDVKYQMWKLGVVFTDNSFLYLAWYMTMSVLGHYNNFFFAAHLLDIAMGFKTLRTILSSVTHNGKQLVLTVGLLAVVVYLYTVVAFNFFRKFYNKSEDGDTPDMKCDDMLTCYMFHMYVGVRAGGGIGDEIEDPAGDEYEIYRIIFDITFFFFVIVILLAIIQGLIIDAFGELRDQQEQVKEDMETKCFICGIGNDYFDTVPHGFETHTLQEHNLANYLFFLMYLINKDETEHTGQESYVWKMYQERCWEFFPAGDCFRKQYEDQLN
T1 sequence (P68106 whole entry partner): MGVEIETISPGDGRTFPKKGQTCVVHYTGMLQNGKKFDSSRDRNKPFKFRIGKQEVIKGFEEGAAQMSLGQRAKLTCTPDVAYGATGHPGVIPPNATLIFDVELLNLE

Take `COc1ccc2c(c1)CN(C(=O)CCN1CCC(Cc3ccccc3)CC1)C[C@@H](C)S2`: the Binding was determined as 100 nM.

`COc1ccc2c(c1)CN(C(=O)CCN1CCC(Cc3ccccc3)CC1)C(C)CS2` (stereo not drawn) showed a Binding of 100 nM.

`COc1ccc2c(c1)CN(C(=O)CCN1CCC(Cc3ccccc3)CC1)[C@@H](C)[C@@H](C)S2` gave a Binding of 100 nM.

The compound `COc1ccc2c(c1)CN(C(=O)CCN1CCC(Cc3ccccc3)CC1)C[C@@H](C)O2` displayed a Binding of 100 nM.

In the case of `COc1ccc2c(c1)CN(C(=O)CCN1CCC(Cc3ccccc3)CC1)C[C@H](C)O2`, the Binding is recorded as 100 nM.

`COc1cccc(OC)c1CN(C)C(=O)CCN1CCC(Cc2ccccc2)CC1`: the Binding is 1000 nM.

`COc1ccc2c(c1)CN(C(=O)CCN1CCC(Cc3ccccc3)CC1)[C@H](C)[C@H](C)S2` gave a Binding of 1000 nM.

As for `COc1ccc2c(c1)C/C(=C\CCN1CCC(Cc3ccccc3)CC1)CCS2`, the Binding was found to be 1000 nM.

In turn, `COc1ccc2c(c1)C/C(=C/CCN1CCC(Cc3ccccc3)CC1)CCS2` yielded a Binding of 100 nM.

(Values after patent publication US20110263569A1, “RYANODINE CHANNEL BINDERS AND USES THEREOF” (President and Fellows of Harvard College, priority 2007, published 2011).)
